Reference: PubChem BioAssay AID1963850 (Molecular Pharmacology Branch, DTP, NCI, 2024)
pIC50: −log10 of the molar value.

Tested on: 192522-019-R-J2-PDC complex tumor spheroid viability
Test: Anticancer human tumor 192522-019-R-J2-PDC patient-derived colon adenocarcinoma cell line growth inhibition [POLQ]
Settings: for pIC50: curve of first compound; for viability, T/C: stronger effect = lower value
In short: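 Growth inhibition in 3D: complex spheroids (tumor PDC, HUVEC, MSC) treated with POLQ inhibitor combinations; where Cmax unknown, highest tested concentration 10 microM, except SN-38 at 1 microM.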
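Also: spheroids exposed to drugs for seven days before reading.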
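For viability, T/C in this document: 100% = DMSO vehicle control viability in luminescence.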

CCc1cc2c(N3CCc4c(cc(Cn5ccnc5)cc4-c4cn(C)nc4C(F)(F)F)C3=O)ccnc2c(OC)n1 + Nc1ccc(C#CCN(C(=O)Cc2ncc(C(F)(F)F)cc2C(F)(F)F)c2ccc(F)cc2)nn1
pIC50 (second compound 0.0316 µM): < 5.00 | pIC50 (second compound 0.1 µM): < 5.00 | pIC50 (second compound 0.316 µM): < 5.00 | pIC50 (second compound 1 µM): < 5.00 | pIC50 (second compound 3.16 µM): < 5.00 | pIC50 (second compound 10 µM): < 5.00 | viability, T/C (second compound 0.0316 µM, first compound 0.0316 µM): 109% | viability, T/C (second compound 0.0316 µM, first compound 0.1 µM): 94.7% | viability, T/C (second compound 0.0316 µM, first compound 0.316 µM): 91.9% | viability, T/C (second compound 0.0316 µM, first compound 1 µM): 71.8% | viability, T/C (second compound 0.0316 µM, first compound 3.16 µM): 75.5% | viability, T/C (second compound 0.0316 µM, first compound 10 µM): 72.2% | viability, T/C (second compound 0.1 µM, first compound 0.0316 µM): 96.1% | viability, T/C (second compound 0.1 µM, first compound 0.1 µM): 94.9% | viability, T/C (second compound 0.1 µM, first compound 0.316 µM): 94% | viability, T/C (second compound 0.1 µM, first compound 1 µM): 80.9% | viability, T/C (second compound 0.1 µM, first compound 3.16 µM): 74.6% | viability, T/C (second compound 0.1 µM, first compound 10 µM): 70.6% | viability, T/C (second compound 0.316 µM, first compound 0.0316 µM): 103% | viability, T/C (second compound 0.316 µM, first compound 0.1 µM): 99% | viability, T/C (second compound 0.316 µM, first compound 0.316 µM): 88% | viability, T/C (second compound 0.316 µM, first compound 1 µM): 80.6% | viability, T/C (second compound 0.316 µM, first compound 3.16 µM): 76.2% | viability, T/C (second compound 0.316 µM, first compound 10 µM): 77.1% | viability, T/C (second compound 1 µM, first compound 0.0316 µM): 99.7% | viability, T/C (second compound 1 µM, first compound 0.1 µM): 99.4% | viability, T/C (second compound 1 µM, first compound 0.316 µM): 94.4% | viability, T/C (second compound 1 µM, first compound 1 µM): 88.3% | viability, T/C (second compound 1 µM, first compound 3.16 µM): 87.6% | viability, T/C (second compound 1 µM, first compound 10 µM): 74.5% | viability, T/C (second compound 3.16 µM, first compound 0.0316 µM): 108% | viability, T/C (second compound 3.16 µM, first compound 0.1 µM): 91.6% | viability, T/C (second compound 3.16 µM, first compound 0.316 µM): 97.5% | viability, T/C (second compound 3.16 µM, first compound 1 µM): 81% | viability, T/C (second compound 3.16 µM, first compound 3.16 µM): 90.6% | viability, T/C (second compound 3.16 µM, first compound 10 µM): 75.8% | viability, T/C (second compound 10 µM, first compound 0.0316 µM): 106% | viability, T/C (second compound 10 µM, first compound 0.1 µM): 97.9% | viability, T/C (second compound 10 µM, first compound 0.316 µM): 97.8% | viability, T/C (second compound 10 µM, first compound 1 µM): 86% | viability, T/C (second compound 10 µM, first compound 3.16 µM): 92.7% | viability, T/C (second compound 10 µM, first compound 10 µM): 79.8%
